Assay [1] addresses T1, CASPASE-7 (Homo sapiens, UniProt P55210).
T1 sequence (P55210 24-198 limits assumed): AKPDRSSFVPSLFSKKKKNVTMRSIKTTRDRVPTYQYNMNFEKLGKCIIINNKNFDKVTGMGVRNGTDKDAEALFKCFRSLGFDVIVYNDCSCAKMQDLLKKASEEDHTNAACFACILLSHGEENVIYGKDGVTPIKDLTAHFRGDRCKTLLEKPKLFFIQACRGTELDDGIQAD
T1 sequence (P55210 207-303 limits assumed): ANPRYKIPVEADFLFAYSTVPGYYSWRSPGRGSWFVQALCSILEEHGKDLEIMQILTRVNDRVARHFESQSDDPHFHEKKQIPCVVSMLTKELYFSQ
Kind of assay: HTS ATP-utilizing enzyme assay, off-chip mobility-shift (Caliper HTS 250). It counts as biochemical. The note with it: enzyme named = inhibitory activity/selectivity; test compound 10 μM; active = greater than three-sigma from mean. The procedure, abridged: (§1)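 Single-point screen at 10 µM compound: kinase reactions ran 2.5 h at 20–22 °C and were stopped with termination buffer. Inhibition was read as the substrate-to-phosphopeptide ratio by microfluidic mobility shift, with EDTA and DMSO wells as controls. Hits were called by three-sigma limits.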

The target of assay [2] is CHEK2 (Homo sapiens, UniProt O96017). The description is as above. Type of assay: biochemical. The note with it: kinase named = inhibitory activity/selectivity; test compound 10 μM; active = greater than three-sigma from mean. The gist of the method: as §1
Sequence of CHEK2 (O96017 whole entry): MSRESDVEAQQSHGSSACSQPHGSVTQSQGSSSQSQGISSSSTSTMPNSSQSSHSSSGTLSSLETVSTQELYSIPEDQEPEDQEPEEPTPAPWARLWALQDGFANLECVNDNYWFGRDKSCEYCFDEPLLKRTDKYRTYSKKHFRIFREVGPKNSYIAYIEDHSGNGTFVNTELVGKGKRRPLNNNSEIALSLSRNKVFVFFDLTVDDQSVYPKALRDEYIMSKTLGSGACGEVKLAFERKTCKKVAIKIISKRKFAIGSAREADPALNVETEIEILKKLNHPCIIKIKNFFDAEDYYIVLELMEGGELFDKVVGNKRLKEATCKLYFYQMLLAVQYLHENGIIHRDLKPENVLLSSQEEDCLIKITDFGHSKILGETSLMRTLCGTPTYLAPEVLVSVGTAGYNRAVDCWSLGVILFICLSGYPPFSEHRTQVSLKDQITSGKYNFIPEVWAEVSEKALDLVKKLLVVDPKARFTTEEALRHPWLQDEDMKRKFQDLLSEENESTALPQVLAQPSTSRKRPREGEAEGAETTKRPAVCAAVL

Regarding `COc1ccc(OC)c(-c2csc(N(CCCN(C)C)C(=O)c3ccccc3)n2)c1` [N-(4-(2,5-dimethoxyphenyl)thiazol-2-yl)-N-(3-(dimethylamino)propyl)benzamide], the Activity result in assay [1] is on record as “CASPASE-7”; in assay [2] it was “CHEK2”.

These data come from patent US7795290B2 (Genentech, Inc., priority 2004, dated 2010).
